The values below come from ChEMBL document CHEMBL4402595, “Discovery of Orally Bioavailable Chromone Derivatives as Potent and Selective BRD4 Inhibitors: Scaffold Hopping, Optimization, and Pharmacological Evaluation” (J Med Chem, 2020).

The target of experiment [1] is T1, Bromodomain-containing protein 4 (Homo sapiens, UniProt O60885). Nature of the experiment: Inhibition of BRD4 in poly(I:C)-stimulated human SAECs TLR3-inducible CIG5 gene expression at 10 uM pre-incubated for 24 hrs before poly(I:C) stimulation for 4 hrs by qRT-PCR analysis relative to control. For orientation: Quantitative PCR measures a nucleic acid by following its amplification.

Experiment [2] addresses T1, Bromodomain-containing protein 4. Nature of the experiment: Inhibition of BRD4 in poly(I:C)-stimulated human SAECs TLR3-inducible IL-6 gene expression at 10 uM pre-incubated for 24 hrs before poly(I:C) stimulation for 4 hrs by qRT-PCR analysis relative to control.
For experiment [3] the target is unchanged. Nature of the experiment: Inhibition of BRD4 in poly(I:C)-stimulated human SAECs TLR3-inducible IL-6 gene expression pre-incubated for 24 hrs before poly(I:C) stimulation for 4 hrs by qRT-PCR analysis.
Experiment [4] has the same target. Nature of the experiment: Inhibition of BRD4 in poly(I:C)-stimulated human SAECs TLR3-inducible CIG5 gene expression pre-incubated for 24 hrs before poly(I:C) stimulation for 4 hrs by qRT-PCR analysis.
Experiment [5] shares this target. Nature of the experiment: Binding affinity to recombinant BRD4 BD2 (unknown origin) incubated for 1 hr by TR-FRET assay. For orientation: TR-FRET usually uses a lanthanide donor and a delayed reading to cut background.
Experiment [6] concerns the target Bromodomain-containing protein 2 (Homo sapiens, UniProt P25440). Nature of the experiment: Binding affinity to recombinant BRD2 BD2 (unknown origin) incubated for 1 hr by TR-FRET assay.

Bromodomain-containing protein 2, sequence (P25440 whole entry): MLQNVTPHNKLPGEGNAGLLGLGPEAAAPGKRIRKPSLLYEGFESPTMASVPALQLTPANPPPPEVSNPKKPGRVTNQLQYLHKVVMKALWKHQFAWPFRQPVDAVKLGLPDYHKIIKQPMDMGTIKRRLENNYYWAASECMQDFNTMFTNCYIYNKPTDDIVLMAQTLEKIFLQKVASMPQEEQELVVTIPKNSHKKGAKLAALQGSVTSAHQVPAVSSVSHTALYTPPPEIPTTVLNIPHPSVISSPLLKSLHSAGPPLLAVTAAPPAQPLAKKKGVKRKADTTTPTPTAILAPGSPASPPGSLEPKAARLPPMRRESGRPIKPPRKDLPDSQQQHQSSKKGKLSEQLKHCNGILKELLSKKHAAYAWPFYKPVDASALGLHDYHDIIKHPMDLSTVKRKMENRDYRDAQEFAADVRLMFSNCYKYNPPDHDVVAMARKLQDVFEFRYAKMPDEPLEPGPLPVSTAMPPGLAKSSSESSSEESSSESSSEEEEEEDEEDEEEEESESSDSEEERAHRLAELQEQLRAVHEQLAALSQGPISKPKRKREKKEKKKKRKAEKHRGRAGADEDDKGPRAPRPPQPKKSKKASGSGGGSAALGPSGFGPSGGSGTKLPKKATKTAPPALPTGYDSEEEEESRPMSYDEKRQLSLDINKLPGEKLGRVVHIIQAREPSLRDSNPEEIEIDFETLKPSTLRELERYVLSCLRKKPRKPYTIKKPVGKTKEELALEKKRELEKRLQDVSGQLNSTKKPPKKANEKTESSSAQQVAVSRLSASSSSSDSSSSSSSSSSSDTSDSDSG

Take `Cc1cc(-c2nc3cccc(F)c3c(=O)[nH]2)cc(C)c1O`: the inhibition – broadly, the change of the read-out against control, counted positive when it falls – in experiment [1] was 33%; in experiment [2], 62%.
The like results for `O=c1[nH]c(-c2cc(F)c(O)cc2F)nc2ccccc12` were, in that order, 2.2% and 59%.
On to `COc1cc(OC)c2c(=O)[nH]c(-c3ccc(O)cc3)nc2c1`, for which the inhibition in experiment [1] worked out at 81%; in experiment [2] it was 63%.
For `Cc1cc(-c2nc3ccc(Cl)cc3c(=O)[nH]2)cc(C)c1O`, the inhibition in experiment [1] is 37%; in experiment [2] it was 53%.
With `COc1cc(OC)c2c(=O)cc(-c3cc(C)c(OCCO)c(C)c3)oc2c1`, the values for the inhibition in experiment [1] and in experiment [2] were 97% and 98%, respectively. Moreover, the IC50 (in general, the concentration that inhibits the measured activity by half) in experiment [3] was 2800 nM; in experiment [4], 2600 nM.
Regarding `Cc1cc(-c2nc3ccc(F)cc3c(=O)[nH]2)cc(C)c1O`, the inhibition in experiment [1] was -4.5%; in experiment [2], 62%.
With `COc1cc(OC)c2c(=O)cc(-c3cc(C)c(OC[C@H](O)CN4CCOCC4)c(C)c3)oc2c1`, the inhibition is 42% in experiment [1] and 82% in experiment [2].
The like results for `Cc1cc(-c2nc3cc(Br)ccc3c(=O)[nH]2)cc(C)c1O` were, in that order, 51% and 15%.
With `COc1cc(OC)c2c(=O)cc(-c3cc(C)c(OC[C@H](O)CN4CCCC4)c(C)c3)oc2c1`, the results for the inhibition in experiment [1] and in experiment [2] were 92% and 99%, respectively. Besides, the IC50 in experiment [3] came out at 970 nM; in experiment [4] it was 1480 nM.
As to `COc1cc(OC)c2c(=O)[nH]c(-c3cc(C)c(OCCO)c(C)c3)nc2c1`, the values for the inhibition in experiment [1] and in experiment [2] were 84% and 65%, respectively.
With `Cc1cc(-c2nc3ccc(Br)cc3c(=O)[nH]2)cc(C)c1O`, the inhibition in experiment [1] was determined as 43%; in experiment [2] it was 25%.
For `COc1cc(OC)c2c(=O)[nH]c(-c3cc(C)c(OC[C@@H]4CO4)c(C)c3)nc2c1` the same measures were 87% and 83%.
For the compound `Cc1cc(-c2nc3ccccc3c(=O)n2C)cc(C)c1O`, the inhibition came to 18% in experiment [1] and 55% in experiment [2].
The like results for `COc1cc(OC)c2c(=O)cc(-c3cc(C)c(OC[C@H](O)CN4CCC(F)(F)CC4)c(C)c3)oc2c1` were, in that order, 63% and 88%.
Take `COc1cc(OC)c2c(=O)[nH]c(-c3cc(C)c(O)c(C)c3)nc2c1`: the inhibition in experiment [2] is 75%.
In the case of `COc1cc(-c2nc3ccccc3c(=O)[nH]2)cc(OC)c1O`, the results for the inhibition in experiment [1] and in experiment [2] were 61% and 59%, respectively.
As to `COc1cc(OC)c2c(=O)cc(-c3cc(C)c(OC[C@@H](O)CN4CCCCC4)c(C)c3)oc2c1`, the inhibition in experiment [1] and in experiment [2] was 100% throughout. Further, the IC50 is 540 nM in experiment [3], 93 nM in experiment [5], 1200 nM in experiment [6] and 580 nM in experiment [4].
For the compound `Cc1cc(-c2nc3cc([N+](=O)[O-])ccc3c(=O)n2C)cc(C)c1O`, the inhibition in experiment [2] was determined as 86%.
Turning to `COc1cc(OC)c2c(=O)cc(-c3cc(C)c(OC[C@@H](F)CN4CCCCC4)c(C)c3)oc2c1`, the inhibition was 85% in experiment [1] and 90% in experiment [2].
Turning to `COc1cc(OC)c2c(=O)[nH]c(-c3cc(C)c(OC[C@@H](O)CN4CCN(C)CC4)c(C)c3)nc2c1`, the inhibition in experiment [1] is 83%; in experiment [2], 80%. Also, the IC50 in experiment [3] is 3500 nM; in experiment [4], 2600 nM.
In the case of `COc1cc(OC)c2c(=O)[nH]c(-c3ccc(C(F)(F)F)c(C)c3)nc2c1`, the inhibition in experiment [2] came out at 45%.
With `Cc1cc(-c2nc3cc(-c4ccn(C)n4)ccc3c(=O)[nH]2)cc(C)c1O`, the inhibition in experiment [1] was 71%.
Regarding `C=CCOc1c(C)cc(-c2cc(=O)c3c(OC)cc(OC)cc3o2)cc1C`, the inhibition in experiment [1] is 83%.
`COc1cc(OC)c2c(=O)cc(-c3cc(C)c(OC[C@H](O)CN(C)C)c(C)c3)oc2c1`: in experiment [2], the inhibition came out at 82%.
Still for that read-out and setting: with `Cc1cc(-c2nc3ccccc3c(=O)[nH]2)cc(C)c1O` the figure was 81%.
Regarding `COc1cc(OC)c2c(=O)[nH]c(-c3ccc(C(F)(F)F)cc3)nc2c1`, the inhibition in experiment [1] was found to be 45%.
As to `COc1cc(OC)c2c(=O)[nH]c(-c3ccc(O)cc3Cl)nc2c1`, the inhibition in experiment [1] was found to be 42%; in experiment [2], 66%.
